Experiments:
[1] = biological target: T1, RBP4 (Mus musculus, UniProt Q00724); assay: Blood RBP4-lowering action in C57BL/6J mouse (plasma RBP4 by ELISA); type: in vivo; conditions: male C57BL/6J mice, mean±SD, n=4 or 5; for RBP4 (initial value/control value %) 8 hr later: plasma 8 hr after administration
T1 construct: from tissue; host or cells: plasma of male C57BL/6J mice (Japan Charles River)
Description: The blood RBP4-lowering action of the compound of the present invention was evaluated using C57BL/6J mouse.
Male 7- to 10-week-old C57BL/6J mice (Japan Charles River) were acclimation reared under free food ingestion conditions on CE-2 solid feed (CLEA Japan, Inc.) for 4 to 6 days, and randomly grouped (4 or 5 per group). On the day of the test, blood samples were collected from the tail vein, and plasma was separated (0 hr value). Thereafter, a test compound (Example 1, 4, 5, 6 or 7) was orally administered at a dose of 5 mg/kg (solvent: 0.5% methylcellulose solution (10 mL/kg)). At 8 hr after the compound was administered, blood samples were collected from the tail vein and plasma was separated. Immediately after the blood samples were collected, the test compound was orally administered again at a dose of 5 mg/kg, and blood samples were collected again at 24 hr after the initial administration. In Examples 2, 3 and 8, the initial administration alone was performed at a dose of 10 mg/kg. The daily dose of all the test compounds was set to 10 mg/kg. A 0.5% methylcellulose solution (10 mL/kg) was orally administered to the control group.
The amount of RBP4 in the collected plasma was measured by the ELISA method. Using rabbit anti-mouse RBP4 polyclonal antibody (Hokudo Co., Ltd.), RBP4 was quantified by the following process. A 96 well ELISA plate was coated with 50 μg/mL antibody (100 μL), and stood at 4° C. overnight or at room temperature for 2 hr. After blocking with BlockAce (Dainippon Pharmaceutical Co., Ltd.), 100 μL of mouse RBP4 or sample was added and the plate was stood at room temperature for 2 hr, washed with PBS-0.5% Tween20, added with HRP-labeled anti-RBP4 antibody (prepared by labeling RBP4 polyclonal antibody (Hokudo Co., Ltd.) with HRP (DOJINDO LABORATORIES)) (100 μL), and stood at room temperature for 1 hr. After washing, TMB (Sigma) was added at room temperature for 20 min to allow for color development. The reaction was quenched with 2N sulfuric acid and the absorbance at A450 nm was measured by a platereader. Variation from the initial value of each individual was taken as the relative value to the control group (initial value/control value, %) at each time point. The results are shown below in mean±standard deviation (n=4 or 5).

[2] = biological target: T2, human RBP4 (Homo sapiens, UniProt P02753); assay: Binding assay by Retinol-RBP4-TTR ELISA; conditions: compound 10 μM; retinol 50 nM; His-tagged human RBP4, biotinylated human TTR; read-out: human RBP4 binding inhibitory activity (% at 10 μM)
T2 construct: the culture supernatant containing secreted hRBP4-His was recovered; made in house; host or cells: FreeStyle 293 expression system (Invitrogen)
Description: Using the Retinol-RBP4-TTR ELISA system shown below, the action of the compound of the present invention to inhibit the binding of RBP4 and retinol and TTR was evaluated.
1F: Binding Assay by Retinol-RBP4-TTR ELISA
This ELISA system detects a complex with RBP4 and TTR based on the retinol dependent binding of RBP4 to TTR.
The His-tagged human RBP4 used was prepared in the above-mentioned 1C.
The biotinylated human TTR used was prepared in the above-mentioned 1E.
Streptavidin (20 μl) (10 μg/ml Streptavidin type II (Wako Pure Chemical Industries, Ltd.), 10 mM Tris-HCl (pH 7.5), 10 mM NaCl) was added to a 384 well blackplate (Nunc MaxiSorp, Thermo Fisher Scientific Inc.), and the plate was centrifuged (1000 rpm, 1 min) and coated at 4° C. overnight. The plate was washed twice with PBST (PBS, 0.05% Tween 20, 100 μl/well), and blocked with 25% Block Ace (Snow Brand Milk Products Co., Ltd., PBS, 100 μl/well). The plate was subjected to centrifugation (1000 rpm, 1 min), and incubated at room temperature for 4 hr or 4° C. overnight. The plate was washed twice with PBST (PBS, 0.05% Tween 20, 100 μl/well), and biotinylated human TTR (stock solution concentration 1.0 mg/ml) diluted 750-fold with PBST was added at 20 μl/well. The plate was subjected to centrifugation (1000 rpm, 1 min), and further stood at room temperature for 1.5 hr or 4° C. overnight. The plate was washed 3 times with PBST (100 μl/well), and His-tagged human RBP4 (stock solution concentration 1.28 mg/ml) diluted 4000-fold with a reaction buffer (50 mM Tris-HCl, 150 mM NaCl, 0.005% Tween 20, 1 mM DTT, 0.1% BSA) was added at 10 μl/well. The dilution of the compound (200-fold concentration) was prepared with DMSO, and 1.6 μl each was added to a reaction buffer (320 μl) containing retinol (50 nM) (Sigma-Aldrich Co.). A reaction buffer (320 μl) containing retinol and added with DMSO was used as a positive control, and a reaction buffer (320 μl) not containing retinol and added with DMSO was used as a negative control. A mixed solution of retinol and the compound was added to the plate at 15 μl/well. The plate was stirred in a plate mixer, centrifuged (1000 rpm, 1 min), and reacted at room temperature for 2 hr. Anti-His HRP-conjugated antibody (QIAGEN) solution diluted with a reaction buffer was added […], centrifuged (1000 rpm, 1 min), and reacted at room temperature for 30 min. The plate was washed 3 times with PBST (100 μl/well), SuperSignal ELISA Femto Maximum Sensitivity Substrate reagent (PIERCE, Thermo Fisher Scientific Inc.) was added at 30 μl/well, and the luminescence was measured by a plate reader (Envision).
The binding inhibitory activity of the compound was determined by 100×(positive control value−test compound value)/(positive control value−negative control value).

[3] = test system: A2E; assay: Suppression of A2E accumulation in the eyeball of ABCA4 KO mouse (HPLC); type: in vivo; conditions: male ABCA4 KO mice, oral 5 mg/kg twice per day for 12 weeks, n=6
Description: The suppressive action for accumulation of retinoid metabolite bis-retinoid N-retinylidene-N-retinylethanolamine (A2E) in the eyeball, of the compound of the present invention, was evaluated using ATP-binding cassette A4 knockout (ABCA4 KO) mouse. A2E is the major constituent component of Lipofuscin in the eyeball, and is involved in the onset and pathology progression in atrophic age-related macular degeneration and Stargardt's disease. ABCA4 KO mouse was confirmed to show remarkable accumulation of A2E, Lipofuscin along with aging, and is known as an animal model of atrophic age-related macular degeneration and Stargardt's disease.
8-Week-old male ABCA4 KO mice were randomly grouped, and 0.5% methylcellulose solution was orally administered to the control group, and 0.5% methylcellulose suspension of a compound at a dose shown in the following Table was orally administered to the test compound group, each twice per day at 10 mL/kg. Each group contained 6 mice. After repetitive administration for 12 weeks, eyeball was isolated under anesthesia.
In the eyeball, A2E was measured by the HPLC method. A2E reference standard was synthesized from all-trans retinal, ethanolamine in acetic acid-added ethanol. […] Quantification was performed at ultraviolet absorbance at 440 nm by PDA.

[4] = oral 5 mg/kg at 0 hr and again at 8 hr (daily dose 10 mg/kg), plasma 24 hr after initial administration
[5] = oral 10 mg/kg initial administration alone
[6] = oral 10 mg/kg initial administration alone, plasma 24 hr after administration

Row | SMILES | RBP4 (initial value/control value %) 24 hr later [1, 4] | RBP4 (initial value/control value %) 8 hr later ([1]; oral 5 mg/kg) | inhibition at 10 µM [2] | RBP4 (initial value/control value %) 8 hr later [1, 5] | RBP4 (initial value/control value %) 24 hr later [1, 6] | A2E (% of control value) [3]
1 | O=C(O)CC(=O)N1CC[C@H](COc2ccccc2C2(C(F)(F)F)CC2)C1 [Example 1, 3-oxo-3-((3S)-3-((2-(1-(trifluoromethyl)cyclopropyl)phenoxy)methyl)pyrrolidin-1-yl)propanoic acid] | 28.49 ± 5.16% | 30.02 ± 6.85% | 100% | – | – | –
2 | CC1(c2ccccc2OC[C@H]2CCN(C(=O)CC(=O)O)C2)CC1 [Example 2, 3-((3S)-3-((2-(1-methylcyclopropyl)phenoxy)methyl)pyrrolidin-1-yl)-3-oxopropanoic acid] | – | – | 98% | 11.82 ± 3.24% | 36.40 ± 12.19% | –
3 | O=C(O)CC(=O)N1CC[C@H](COc2ccccc2C2CCC2)C1 [Example 3, 3-((3S)-3-((2-cyclobutylphenoxy)methyl)pyrrolidin-1-yl)-3-oxopropanoic acid] | – | – | 98% | 37.20 ± 3.71% | 95.57 ± 8.55% | –
4 | O=C(O)CC(=O)N1CC[C@H](COc2ccccc2C2CCCC2)C1 [Example 4, 3-((3S)-3-((2-cyclopentylphenoxy)methyl)pyrrolidin-1-yl)-3-oxopropanoic acid] | 56.02 ± 9.72% | 29.93 ± 6.80% | 100% | – | – | 53.94 ± 15.16%
5 | O=C(O)CC(=O)N1CC[C@H](COc2ccccc2C2CCCCC2)C1 [Example 5, 3-((3S)-3-((2-cyclohexylphenoxy)methyl)pyrrolidin-1-yl)-3-oxopropanoic acid] | 62.83 ± 4.70% | 32.30 ± 1.76% | 100% | – | – | –

More lines, main results first:

Row | RBP4 (initial value/control value %) 24 hr later [1, 4] | RBP4 (initial value/control value %) 8 hr later ([1]; oral 5 mg/kg) | inhibition at 10 µM [2] | RBP4 (initial value/control value %) 8 hr later [1, 5] | RBP4 (initial value/control value %) 24 hr later [1, 6] | SMILES | A2E (% of control value) [3]
6 | 41.90 ± 20.25% | 41.42 ± 13.96% | 100% | – | – | O=C(O)CC(=O)N1CC[C@@H](COc2ccccc2C2CCCC2)C1 [Example 6, 3-((3R)-3-((2-cyclopentylphenoxy)methyl)pyrrolidin-1-yl)-3-oxopropanoic acid] | –
7 | 53.72 ± 6.97% | 33.90 ± 6.60% | 100% | – | – | O=C(O)CC(=O)N1CCC(COc2ccccc2C2CCCC2)C1 (stereo not drawn) [Example 7, 3-(3-((2-cyclopentylphenoxy)methyl)pyrrolidin-1-yl)-3-oxopropanoic acid] | –
8 | – | – | – | 77.35 ± 7.08% | 92.76 ± 6.81% | CCOC(=O)CC(=O)N1CC[C@H](COc2ccccc2C2(C(F)(F)F)CC2)C1 [Example 8, ethyl 3-oxo-3-((3S)-3-((2-(1-(trifluoromethyl)cyclopropyl)phenoxy)methyl)pyrrolidin-1-yl)propanoate] | –

Source: patent US9944596B2, “Heterocyclic compound” (TAKEDA PHARMACEUTICAL COMPANY LIMITED, priority 2014, dated 2018)
